The values that follow come from article PMC6930659, “Antiprotozoal Activity of Turkish Origanum onites Essential Oil and Its Components” (Molecules, 2019).

In brackets after ≈: the same amount, converted by molar mass. Like-named read-outs stand apart in the source and are kept apart here. Some results are limits rather than exact numbers.

Test [1] deals with L. infantum promastigotes. More on the design: method as in PMID 31151304. Conditions: 24 h MTT assay; cited from earlier work. Background: Tetrazolium assays rely on reduction of a dye to a coloured formazan, in cell work by metabolically active cells.
The test system of test [2] is P. falciparum K1 strain. The experiment in a line: In vitro assay for Plasmodium falciparum ([3H]-hypoxanthine incorporation). Type of test: cell-based. As to the method: Activity against the erythrocytic stages of P. falciparum was determined using an in vitro modified [^3H]-hypoxanthine incorporation assay, using the chloroquine- and pyrimethamine-resistant K1 strain [68]. Compounds were dissolved in DMSO at 10 mg/mL and further diluted in medium before added to parasite cultures incubated in RPMI 1640 medium without hypoxanthine, supplemented with HEPES (5.94 g/l), NaHCO3 (2.1 g/L), neomycin (100 U/mL), AlbumaxR (5 g/L), and washed human red cells A+ at 2.5% haematocrit (0.3% parasitaemia). Serial drug dilutions of seven 3-fold dilution steps covering a range from 90 to 0.123 μg/mL were prepared. The 96 well plates were incubated in a humidified atmosphere at 37 °C; 4% CO2, 3% O2, 93% N2. After 48 h 50 μL of ^3H-hypoxanthine (=0.5 μCi) was added to each well of the plate. The plates were incubated for a further 24 h under the same conditions. The plates were then harvested with a Betaplate™ cell harvester (Wallac, Zurich, Switzerland), and the red blood cells transferred onto a glass fiber filter then washed with distilled water. The dried filters were inserted into a plastic foil with 10 mL of scintillation fluid, and counted in a Betaplate™ liquid scintillation counter (Wallac, Zurich, Switzerland). […] IC50 values were calculated from the sigmoidal inhibition curves using Microsoft Excel. Chloroquine was used as positive control drug.

Test [3] concerns chloroquine-resistant P. falciparum strain. The following applies: reported to be inactive; cited from earlier work.
In test [4] the test system is T. cruzi Tulahuen strain C2C4. The experiment in a line: In vitro assay for Trypanosoma cruzi in L-6 cells (β-galactosidase/CPRG). Type of test: cell-based. Conditions: highest concentration tested 90 μg/mL; for IC50: Trypanosoma cruzi, L6, Tulahuen C2C4 in L-6 cells, 96 h, means of two determinations ± deviation. As to the method: Rat skeletal myoblasts (L-6 cells) were seeded in 96 well microtiter plates (2000 cells/well) in 100 μL RPMI 1640 medium with 10% FBS and 2 mM L-glutamine for 24 h. After that, the medium was removed and replaced by 100 μL per well containing 5000 trypomastigote forms of T. cruzi Tulahuen strain C2C4, containing the β-galactosidase (Lac Z) gene. The medium was removed from the wells after 48 h, and replaced with 100 μL fresh medium with or without a serial drug dilution of seven 3-fold dilution steps covering a range from 90 to 0.123 μg/mL. After 96 h of incubation, the plates were inspected under an inverted microscope to assure growth of the controls and sterility, after which the substrate CPRG/Nonidet ([…]) was added to all wells. A color reaction developed within 2–6 h and could be read photometrically at 540 nm. Data were transferred into the graphic program Softmax Pro (Molecular Devices Cooperation, Sunnyvale, CA, USA) and the IC50 values were calculated from the sigmoidal dose response curves. Benznidazole was the reference drug.

The test system of test [5] is L. infantum. More on the design: method as in doi:10.1016/j.indcrop.2015.09.049. Conditions: cited from earlier work.
For test [6], the system named is Trypanosoma cruzi. Set-up: method as in earlier work. Conditions: 200 mg/kg/day, intragastric route, 22nd day post-infection; cited from earlier work.
Test [7] relates to T. cruzi trypomastigotes. Set-up: method as in PMID 17024354. Conditions: 24 h incubation; cited from earlier work.
For test [8], the system named is P. falciparum. More on the design: method as in PMID 22441836. The following applies: cited from earlier work.
Test [9] relates to intracellular amastigotes of T.-cruzi-infected Vero cells. Set-up: method as in PMID 20428679. Conditions: cited from earlier work.
The test system of test [10] is T. cruzi epimastigotes. More on the design: method as in PMID 17024354. The following applies: 24 h incubation; cited from earlier work.

One may read the IC50 as the point on the concentration scale where inhibition reaches its midpoint.

On to `Cc1ccc(C(C)C)cc1O` [Carvacrol], for which, in test [1], the “IC50 L. infantum promastigotes” value is 9.8 µg/mL (≈ 65.2 µM). The IC50 is 6.4 ± 0.9 µg/mL (≈ 42.6 µM) in [2] (K1, read-out: IC50 Plasmodium falciparum); more than 1000 µM in test [3]; more than 90 µg/mL in test [4]. In addition, the “inhibitory activity against T. cruzi (in words)” value in test [4] was “inactive”. For the same molecule, in [5], the “IC50 L. infantum” value was 7.35 µg/mL (≈ 48.9 µM).
As for `Cc1ccc(C(C)C)c(O)c1` [Thymol], in test [1], the “IC50 L. infantum promastigotes” value was 7.2 µg/mL (≈ 47.9 µM). Besides, the IC50 in [2] (K1 strain (chloroquine- and pyrimethamine-resistant), erythrocytic stages, means of two determinations ± deviation, read-out: IC50 Plasmodium falciparum) is 5.7 ± 0.03 µg/mL (≈ 37.9 µM); in [4], more than 90 µg/mL. In addition, the “parasitemia in T. cruzi infected albino mice (in words)” value in test [6] is reported as “significant reduction in parasitemia”. Also, the “inhibitory activity against T. cruzi (in words)” value in [4] is “inactive”. For the same molecule, the “IC50 T. cruzi trypomastigotes” value in test [7] was 53 µg/mL (≈ 353 µM). Also, the “IC50 in vitro antimalarial activity” value in test [8] was 4.5 µg/mL (≈ 30 µM). In addition, the selective index entry in test [9] (T.-cruzi-infected Vero cells) is reported as “greater than 10”. In addition, in test [9], the “IC50 intracellular amastigotes of T.-cruzi-infected Vero cells” value is 3.2 µg/mL. In addition, the “IC50 T. cruzi epimastigotes” value in test [10] is 62 µg/mL (≈ 413 µM).
